From publication PMC10817917, “Alkyl deoxyglycoside-polymyxin combinations against critical priority carbapenem-resistant gram-negative bacteria” (Scientific Reports, 2024)
Read-outs that look alike come from different tables or passages of the source.

Key:
P. aeruginosa CQ4924 = assay: Broth microdilution MIC, glycosides with or without polymyxins; type: cell-based, Pseudomonas aeruginosa; details: for MIC: Pseudomonas aeruginosa, CQ4924
K. pneumoniae CQ1947 = assay: as above; type: cell-based, Klebsiella pneumoniae; details: for MIC: Klebsiella pneumoniae, CQ1947
E. cloacae CQ1941 = assay: Broth microdilution MIC/MBC, glycosides with or without polymyxins; type: cell-based; details: for MIC: Enterobacter cloacae, CQ1941
K. pneumoniae CQ1942 = assay: Broth microdilution MIC, glycosides with or without polymyxins; type: cell-based, Klebsiella pneumoniae; details: for MIC: Klebsiella pneumoniae, CQ1942
[1] = alone, read-out: MICA (MIC of each compound individually)
[2] = combination with the lowest FICI
[3] = compound + colistin, lowest FICI

MIC of colistin in combination with the compound (P. aeruginosa CQ4924; Cpd conc. 0.4 μg/mL, strain H): > 0.5 µg/mL | MIC of colistin in combination with the compound (P. aeruginosa CQ4924; Cpd conc. 0.8 μg/mL, strain H): > 0.5 µg/mL | MIC of colistin in combination with the compound (P. aeruginosa CQ4924; Cpd conc. 3.125 μg/mL, strain H): 0.5 µg/mL | MIC of colistin in combination with the compound (P. aeruginosa CQ4924; Cpd conc. 6.25 μg/mL, strain H): 0.5 µg/mL | MIC of colistin in combination with the compound (P. aeruginosa CQ4924; Cpd conc. 12.5 μg/mL, strain H): 0.5 µg/mL | MIC of colistin in combination with the compound (P. aeruginosa CQ4924; Cpd conc. […], strain H): > 0.5 µg/mL | MIC of compound in combination with PMB (P. aeruginosa CQ4924; PMB 0.25 μg/mL, strain H): > 100 µg/mL | MIC of compound in combination with PMB (P. aeruginosa CQ4924; PMB 0.5 μg/mL, strain H): 6.3 µg/mL | MIC (P. aeruginosa CQ4924; agent alone, no adjuvant (polymyxin conc. 0), strain H, read-out: MIC): > 100 µg/mL | MIC (P. aeruginosa CQ4924; [1]): > 100 µg/mL | MIC of compound in combination with colistin (P. aeruginosa CQ4924; colistin 0.06 μg/mL, strain H): > 100 µg/mL | MIC of compound in combination with colistin (P. aeruginosa CQ4924; colistin 0.125 μg/mL, strain H): > 100 µg/mL | MIC of compound in combination with colistin (P. aeruginosa CQ4924; colistin 0.25 μg/mL, strain H): > 100 µg/mL | MIC of compound in combination with colistin (P. aeruginosa CQ4924; colistin 0.5 μg/mL, strain H): 3.1 µg/mL | MICA(A + B) (MIC of compound in combination with colistin) (P. aeruginosa CQ4924; [2]): 3.125 µg/mL | MICB(A + B) (MIC of colistin in combination with compound) (P. aeruginosa CQ4924; [2]): 0.5 µg/mL | MIC of colistin in combination with the compound (K. pneumoniae CQ1947; Cpd conc. 0.4 μg/mL, strain F): 0.5 µg/mL | MIC of colistin in combination with the compound (K. pneumoniae CQ1947; Cpd conc. 0.8 μg/mL, strain F): 0.5 µg/mL | MIC of colistin in combination with the compound (K. pneumoniae CQ1947; Cpd conc. 3.125 μg/mL, strain F): 0.25 µg/mL | MIC of colistin in combination with the compound (K. pneumoniae CQ1947; Cpd conc. 6.25 μg/mL, strain F): 0.25 µg/mL | MIC of colistin in combination with the compound (K. pneumoniae CQ1947; Cpd conc. 12.5 μg/mL, strain F): 0.25 µg/mL | MIC of colistin in combination with the compound (K. pneumoniae CQ1947; Cpd conc. […], strain F): 0.5 µg/mL | MIC (K. pneumoniae CQ1947; agent alone, no adjuvant (polymyxin conc. 0), strain F, read-out: MIC): > 100 µg/mL | MIC (K. pneumoniae CQ1947; [1]): > 100 µg/mL | MIC of compound in combination with PMB (K. pneumoniae CQ1947; PMB 0.25 μg/mL, strain F): > 100 µg/mL | MIC of compound in combination with PMB (K. pneumoniae CQ1947; PMB 0.5 μg/mL, strain F): 3.1 µg/mL | MIC of compound in combination with colistin (K. pneumoniae CQ1947; colistin 0.06 μg/mL, strain F): > 100 µg/mL | MIC of compound in combination with colistin (K. pneumoniae CQ1947; colistin 0.125 μg/mL, strain F): > 100 µg/mL | MIC of compound in combination with colistin (K. pneumoniae CQ1947; colistin 0.5 μg/mL, strain F): 0.2 µg/mL | MICA(A + B) (MIC of compound in combination with colistin) (K. pneumoniae CQ1947; [2]): 3.125 µg/mL | MICB(A + B) (MIC of colistin in combination with compound) (K. pneumoniae CQ1947; [2]): 0.25 µg/mL | MIC of colistin in combination with the compound (E. cloacae CQ1941; Cpd conc. 0.4 μg/mL, strain D): 0.5 µg/mL | MIC of colistin in combination with the compound (E. cloacae CQ1941; Cpd conc. 0.8 μg/mL, strain D): 0.5 µg/mL | MIC of colistin in combination with the compound (E. cloacae CQ1941; Cpd conc. 3.125 μg/mL, strain D): 0.125 µg/mL | MIC of colistin in combination with the compound (E. cloacae CQ1941; Cpd conc. 6.25 μg/mL, strain D): 0.125 µg/mL | MIC of colistin in combination with the compound (E. cloacae CQ1941; Cpd conc. 12.5 μg/mL, strain D): 0.125 µg/mL | MIC of colistin in combination with the compound (E. cloacae CQ1941; Cpd conc. […], strain D): 0.5 µg/mL | MIC (E. cloacae CQ1941; agent alone, no adjuvant (polymyxin conc. 0), strain D, read-out: MIC): > 100 µg/mL | MIC (E. cloacae CQ1941; [1]): > 100 µg/mL | MIC of compound in combination with PMB (E. cloacae CQ1941; PMB 0.25 μg/mL, strain D): > 100 µg/mL | MIC of compound in combination with PMB (E. cloacae CQ1941; PMB 0.5 μg/mL, strain D): 1.6 µg/mL | MIC of compound in combination with colistin (E. cloacae CQ1941; colistin 0.06 μg/mL, strain D): > 100 µg/mL | MIC of compound in combination with colistin (E. cloacae CQ1941; colistin 0.125 μg/mL, strain D): 3.1 µg/mL | MIC of compound in combination with colistin (E. cloacae CQ1941; colistin 0.25 μg/mL, strain D): 3.1 µg/mL | MIC of compound in combination with colistin (E. cloacae CQ1941; colistin 0.5 μg/mL, strain D): ≤ 0.1 µg/mL | MICA(A + B) (MIC of compound in combination with colistin) (E. cloacae CQ1941; [2]): 3.125 µg/mL | MICB(A + B) (MIC of colistin in combination with compound) (E. cloacae CQ1941; [2]): 0.125 µg/mL | MIC of colistin in combination with the compound (K. pneumoniae CQ1942; Cpd conc. 0.4 μg/mL, strain E): 0.5 µg/mL | MIC of colistin in combination with the compound (K. pneumoniae CQ1942; Cpd conc. 0.8 μg/mL, strain E): 0.5 µg/mL | MIC of colistin in combination with the compound (K. pneumoniae CQ1942; Cpd conc. 3.125 μg/mL, strain E): 0.25 µg/mL | MIC of colistin in combination with the compound (K. pneumoniae CQ1942; Cpd conc. 6.25 μg/mL, strain E): 0.25 µg/mL | MIC of colistin in combination with the compound (K. pneumoniae CQ1942; Cpd conc. 12.5 μg/mL, strain E): 0.25 µg/mL | MIC of colistin in combination with the compound (K. pneumoniae CQ1942; Cpd conc. […], strain E): 0.5 µg/mL | MIC (K. pneumoniae CQ1942; agent alone, no adjuvant (polymyxin conc. 0), strain E, read-out: MIC): > 100 µg/mL | MIC (K. pneumoniae CQ1942; [1]): > 100 µg/mL | MIC of compound in combination with PMB (K. pneumoniae CQ1942; PMB 0.25 μg/mL, strain E): > 100 µg/mL | MIC of compound in combination with PMB (K. pneumoniae CQ1942; PMB 0.5 μg/mL, strain E): 1.6 µg/mL | MIC of compound in combination with colistin (K. pneumoniae CQ1942; colistin 0.06 μg/mL, strain E): > 100 µg/mL | MIC of compound in combination with colistin (K. pneumoniae CQ1942; colistin 0.125 μg/mL, strain E): > 100 µg/mL | MIC of compound in combination with colistin (K. pneumoniae CQ1942; colistin 0.5 μg/mL, strain E): ≤ 0.1 µg/mL | MICA(A + B) (MIC of compound in combination with colistin) (K. pneumoniae CQ1942; [2]): 3.125 µg/mL | MICB(A + B) (MIC of colistin in combination with compound) (K. pneumoniae CQ1942; [2]): 0.25 µg/mL
SMILES: CCCCCCCCCCCC[C@H]1O[C@H](C)C[C@H](O)[C@H]1O [Compound 5, 1-(4,6-dideoxy-α-D-xylo-hexopyranosyl)dodecane]
Interpretation (of FICI) (P. aeruginosa CQ4924; compound + colistin): Additive (from 0.5 to 1.0 were additive) | FICI (P. aeruginosa CQ4924; [3]): 0.52 | Interpretation (of FICI) (K. pneumoniae CQ1947; compound + colistin): Additive (from 0.5 to 1.0 were additive) | FICI (K. pneumoniae CQ1947; [3]): 0.52 | MBC of compound in combination with colistin (E. cloacae CQ1941; colistin 0.125 μg/mL, strain D): 6.3 µg/mL | FICI (E. cloacae CQ1941; [3]): 0.27 | Interpretation (of FICI) (K. pneumoniae CQ1942; compound + colistin): Additive (from 0.5 to 1.0 were additive) | FICI (K. pneumoniae CQ1942; [3]): 0.52
